The text below walks through data of patent publication US20170253601A1, “Substituted Pyrrolidine Compounds” (EPIZYME, INC., priority 2014, published 2017).

The first experiment deals with T1, SMYD2 (Homo sapiens, UniProt Q9NRG4).
T1 construct: Full length SMYD2 (NP 064582.2) was cloned; His6 (N, cleaved yes); FLAG (N); made in house; host or cells: Sf9 insect cells
T1 sequence (Q9NRG4 whole entry): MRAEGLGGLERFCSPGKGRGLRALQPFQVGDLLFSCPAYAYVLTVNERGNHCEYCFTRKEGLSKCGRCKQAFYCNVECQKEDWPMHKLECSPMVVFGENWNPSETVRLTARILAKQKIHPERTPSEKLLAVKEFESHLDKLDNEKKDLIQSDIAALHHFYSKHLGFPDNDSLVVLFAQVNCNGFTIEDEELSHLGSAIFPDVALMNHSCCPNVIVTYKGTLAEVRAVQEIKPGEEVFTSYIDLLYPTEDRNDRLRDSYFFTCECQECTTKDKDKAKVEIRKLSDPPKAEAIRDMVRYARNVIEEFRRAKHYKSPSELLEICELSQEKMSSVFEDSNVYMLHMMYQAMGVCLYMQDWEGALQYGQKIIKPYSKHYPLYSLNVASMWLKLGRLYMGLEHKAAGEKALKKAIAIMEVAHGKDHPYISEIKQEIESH
As to the kind of experiment: SMYD2 Biochemical Assay (3H-SAM, biotinylated peptide substrate, Flashplate). The following applies: IC50 values are an average of n = 1 to n = 50; read-out: SMYD2 Biochem IC50 (μM)*. The method in brief:
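Methyltransferase activity tracked as 3H transfer from 10 nM 3H-SAM to 60 nM biotinylated peptide, counted after streptavidin Flashplate capture and normalised to DMSO and 1000 uM SAH controls. Enzyme: 1.5 nM full-length Sf9-expressed SMYD2, 30 min compound pre-incubation at room temperature, in Bicine pH 7.6 buffer with 2% DMSO; reactions quenched with 600 uM unlabelled SAM; IC50 from 3- or 4-parameter fit.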
Usually IC50 stands for the concentration at which inhibition is half-maximal. For `C[C@H]1CN(CC(F)(F)F)C[C@H]1NC(=O)c1cc(C2CC2)on1` (racemic) [compound 262, (±)-cis-5-cyclopropyl-N-[4-methyl-1-(2,2,2-trifluoroethyl)pyrrolidin-3-yl]-1,2-oxazole-3-carboxamide], the IC50 is more than 50 µM.

Consider `C[C@H]1CN(Cc2c[nH]c3ccccc23)C[C@H]1NC(=O)c1cc(C2CC2)on1` (racemic) [compound 194, (±)-cis-5-cyclopropyl-N-[1-(1H-indol-3-ylmethyl)-4-methyl-pyrrolidin-3-yl]-1,2-oxazole-3-carboxamide], for which the IC50 came to 6.86 µM.

`C[C@@H]1CN(c2ccc(Cl)cc2)C[C@H]1NC(=O)c1cc(C2CC2)on1` (racemic) [compound 298, (±)-trans-N-[1-(4-chloro-phenyl)-4-methyl-pyrrolidin-3-yl]-5-cyclopropyl-1,2-oxazole-3-carboxamide]: the IC50 was more than 50 µM.

For the compound `C[C@H]1CN(Cc2cc3ccccc3nc2Cl)C[C@H]1NC(=O)c1cc(C2CC2)on1` (racemic) [compound 269, (±)-cis-N-[1-[(2-chloro-quinolin-3-yl)methyl]-4-methylpyrrolidin-3-yl]-5-cyclopropyl-1,2-oxazole-3-carboxamide], the IC50 is 4.17 µM.

In the case of `CC(C)N1C[C@@H](C)[C@H](NC(=O)c2cc(C3(C)CC3)on2)C1` (racemic) [compound 250, (±)-trans-N-[4-methyl-1-(propan-2-yl)pyrrolidin-3-yl]-5-(1-methylcyclo-propyl)-1,2-oxazole-3-carboxamide], the IC50 is more than 50 µM.

As for `C[C@H]1CN(Cc2ccccc2)C[C@H]1NC(=O)c1cc(C2CC2)on1` (racemic) [compound 116, (±)-cis-N-([1-benzyl-4-methylpyrrolidin-3-yl)-5-cyclopropyl-1,2-oxazole-3-carboxamide], the IC50 turned out to be 4.2 µM.

`C[C@H]1CN(c2cccnc2)C[C@H]1NC(=O)c1cc(C2CC2)on1` (racemic) [compound 336, (±)-cis-5-cyclopropyl-N-[4-methyl-1-(pyridin-3-yl)pyrrolidin-3-yl]-1,2-oxazole-3-carboxamide]: the IC50 is more than 50 µM.

For `C[C@H]1CN(CC2CCNCC2)C[C@H]1NC(=O)c1cc(C2CC2)on1` (racemic) [compound 164, (±)-cis-5-cyclopropyl-N-[4-methyl-1-(piperidin-4-ylmethyl)pyrrolidin-3-yl]-1,2-oxazole-3-carboxamide], the IC50 was found to be 4.78 µM.

For the compound `C[C@@H]1CN(c2ccncc2)C[C@H]1NC(=O)c1cc(C2CC2)on1` (racemic) [compound 313, (±)-trans-5-cyclopropyl-N-[4-methyl-1-(pyridin-4-yl)pyrrolidin-3-yl]-1,2-oxazole-3-carboxamide], the IC50 was more than 50 µM.

Turning to `C[C@@H]1CN(c2ncccn2)C[C@H]1NC(=O)c1cc(C2CC2)on1` (racemic) [compound 315, (±)-trans-5-cyclopropyl-N-[4-methyl-1-(pyrimidin-2-yl)pyrrolidin-3-yl]-1,2-oxazole-3-carboxamide], the IC50 was more than 50 µM.

As to `CC(C)N1C[C@H](C)[C@H](NC(=O)c2cc(CC(F)F)on2)C1` (racemic) [compound 345, (±)-cis-5-(2,2-difluoro-ethyl)-N-[4-methyl-1-(propan-2-yl)pyrrolidin-3-yl]-1,2-oxazole-3-carboxamide], the IC50 came out at 5.84 µM.

Take `COc1cc(CN2C[C@H](C)[C@H](NC(=O)c3cc(C4CC4)on3)C2)cc(OC)c1` (racemic) [compound 333, (±)-cis-5-cyclopropyl-N-{1-[(3,5-dimethoxy-phenyl)methyl]-4-methylpyrrolidin-3-yl}-1,2-oxazole-3-carboxamide]: the IC50 was more than 50 µM.

As for `C[C@@H]1CN(CC2CCOCC2)C[C@H]1NC(=O)c1cc(C2CC2)on1` (racemic) [compound 170, (±)-trans-5-cyclopropyl-N-[4-methyl-1-(oxan-4-ylmethyl)pyrrolidin-3-yl]-1,2-oxazole-3-carboxamide], the IC50 was more than 50 µM.

With `CC(C)c1cc(C(=O)N[C@H]2C[C@H](CNC(=O)c3ccccc3)N(C3CC3)C2)no1` (stereo in doubt) [compound 189, (±)-trans-N-[1-cyclopropyl-5-[(phenyl-formamido)methyl]pyrrolidin-3-yl]-5-(propan-2-yl)-1,2-oxazole-3-carboxamide], the IC50 was more than 50 µM.

With `C[C@@H]1CN(C2CC2)C[C@@H]1NC(=O)c1cc(C2CC2)on1` [compound 235, 5-cyclopropyl-N-[(3R,4R)-1-cyclopropyl-4-methyl-pyrrolidin-3-yl]-1,2-oxazole-3-carboxamide], the IC50 worked out at 1.15 µM.

On to `C[C@H]1CN(Cc2ccc3c(c2)OCCN3C)C[C@H]1NC(=O)c1cc(C2CC2)on1` (racemic) [compound 289, (±)-cis-5-cyclopropyl-N-{4-methyl-1-[(4-methyl-3,4-dihydro-2H-1,4-benzoxazin-7-yl)methyl]pyrrolidin-3-yl}-1,2-oxazole-3-carboxamide], for which the IC50 was 6.08 µM.

Consider `C[C@@H]1CN(c2ccnc(N)n2)C[C@H]1NC(=O)c1cc(C2CC2)on1` (racemic) [compound 314, (±)-trans-N-[1-(2-amino-pyrimidin-4-yl)-4-methylpyrrolidin-3-yl]-5-cyclopropyl-1,2-oxazole-3-carboxamide], for which the IC50 is more than 50 µM.

`CC(C)N1C[C@@H](C)[C@H](NC(=O)c2cc(C3CC3)on2)C1` (racemic) [compound 191, (±)-trans-5-cyclopropyl-N-[4-methyl-1-(propan-2-yl)pyrrolidin-3-yl]-1,2-oxazole-3-carboxamide]: the IC50 was found to be 40.3 µM.

For `CC(C)[C@H]1CN(C(C)C)C[C@@H]1NC(=O)c1cc(C2CC2)on1` (racemic) [compound 178, (±)-trans-N-[1,4-bis(propan-2-yl)pyrrolidin-3-yl]-5-cyclopropyl-1,2-oxazole-3-carboxamide], the IC50 is more than 50 µM.

With `C[C@@H]1CN(CC2CCC2)C[C@H]1NC(=O)c1cc(C2CC2)on1` (racemic) [compound 156, (±)-trans-N-[1-(cyclobutyl-methyl)-4-methylpyrrolidin-3-yl]-5-cyclopropyl-1,2-oxazole-3-carboxamide], the IC50 is more than 50 µM.

`C[C@@H]1CN(Cc2cc([N+](=O)[O-])ccc2F)C[C@H]1NC(=O)c1cc(C2CC2)on1` (racemic) [compound 179, (±)-trans-5-cyclopropyl-N-[1-[(2-fluoro-5-nitrophenyl)methyl]-4-methylpyrrolidin-3-yl]-1,2-oxazole-3-carboxamide]: the IC50 was more than 50 µM.

The same experiment, now with this note: Table 2; average of n = 1 to n = 50; read-out: SMYD2 Biochem IC50.
In the case of `C[C@@H]1CN(C2CCCCC2)C[C@@H]1NC(=O)c1cc(C2CC2)on1` (racemic) [compound 72, (±)-cis-N-(1-cyclohexyl-4-methylpyrrolidin-3-yl)-5-cyclopropylisoxazole-3-carboxamide], the IC50 worked out at 18.4 µM.

Take `C[C@@H]1CN(C2CCCCC2)C[C@H]1NC(=O)c1cc(C2CC2)on1` (racemic) [compound 96, (±)-trans-N-(1-cyclohexyl-4-methylpyrrolidin-3-yl)-5-cyclopropylisoxazole-3-carboxamide]: the IC50 was more than 50 µM.

`CC(C)N1C[C@H](C)[C@H](NC(=O)c2cc(C3CC3)on2)C1` (racemic) [compound 65, (±)-cis-5-cyclopropyl-N-(1-isopropyl-4-methylpyrrolidin-3-yl)isoxazole-3-carboxamide]: the IC50 came to 2.4 µM.
